Test results from PubChem BioAssay AID1963873 (Molecular Pharmacology Branch, DTP, NCI, 2024).

Test system: 276233-004-R-J1-PDC KRAS spheroids with HUVEC/MSC, viability
Assay: Anticancer human tumor 276233-004-R-J1-PDC patient-derived colon adenocarcinoma cell line growth inhibition [KRAS2]
Settings: for viability, T/C: stronger effect = lower value; for IC50: curve of first compound; active means viability on the fitted dose curve at most 10% of control; inactive means the rest
Method in brief: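 KRAS-mutant tumor cells were grown as spheroids with HUVEC endothelial cells and human MSCs as stroma. Targeted agents were tested alone and with KRAS pathway inhibitors. Doses started at or near clinical Cmax, or 10 microM, descending half-log.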

[1] = second compound 0.1 µM, first compound 0.01 µM
[2] = second compound 0.1 µM, first compound 0.0316 µM
[3] = second compound 0.316 µM, first compound 0.01 µM
[4] = second compound 0.316 µM, first compound 0.0316 µM
[5] = second compound 1 µM, first compound 0.01 µM
[6] = second compound 1 µM, first compound 0.0316 µM
[7] = second compound 3.16 µM, first compound 0.01 µM
[8] = second compound 3.16 µM, first compound 0.0316 µM
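Further: cells exposed to agents for seven days before viability read.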
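Wherever viability, T/C is given: 100% = DMSO vehicle control wells and lower values mean fewer viable cells.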

Cn1nccc1Nc1nccc(-c2cc3c(s2)C(C)(C)N(CCN2CCOCC2)C3=O)n1
inactive: viability, T/C (compound 0.1 µM) 96.5% [middle of 5 runs] | viability, T/C (compound 0.316 µM) 86.1% [middle of 5 runs] | viability, T/C (compound 1 µM) 79.7% [middle of 5 runs] | viability, T/C (compound 3.16 µM) 54.2% [middle of 5 runs] | viability, T/C (compound 10 µM) 49.9% [middle of 5 runs]

CC(=O)Nc1cccc(-n2c(=O)n(C3CC3)c(=O)c3c(Nc4ccc(I)cc4F)n(C)c(=O)c(C)c32)c1 + C=CC(=O)N1CCN(c2nc(OCC3CCCN3C)nc3c2CCN(c2cccc4cccc(C)c24)C3)CC1CC#N
4.73 nM: IC50 (second compound 0.316 µM)
9.05 nM: IC50 (second compound 0.1 µM)
active: viability, T/C [4] 10% | viability, T/C [6] 7% | viability, T/C [7] 4.17% | viability, T/C [8] 3.27%
7.53 nM: IC50 (second compound 0.0316 µM)
2.49 nM: IC50 (second compound 1 µM)
0.141 nM: IC50 (second compound 3.16 µM)
inactive: viability, T/C (second compound 0.0316 µM, first compound 0.0001 µM) 79.5% | viability, T/C (second compound 0.0316 µM, first compound 0.000316 µM) 92.4% | viability, T/C (second compound 0.0316 µM, first compound 0.001 µM) 81.2% | viability, T/C (second compound 0.0316 µM, first compound 0.00316 µM) 66.9% | viability, T/C (second compound 0.0316 µM, first compound 0.01 µM) 44.9% | viability, T/C (second compound 0.0316 µM, first compound 0.0316 µM) 16.8% | viability, T/C (second compound 0.1 µM, first compound 0.0001 µM) 82.2% | viability, T/C (second compound 0.1 µM, first compound 0.000316 µM) 86.3% | viability, T/C (second compound 0.1 µM, first compound 0.001 µM) 72.8% | viability, T/C (second compound 0.1 µM, first compound 0.00316 µM) 63.1% | viability, T/C [1] 50.4% | viability, T/C [2] 22.6% | viability, T/C (second compound 0.316 µM, first compound 0.0001 µM) 76.1% | viability, T/C (second compound 0.316 µM, first compound 0.000316 µM) 83.7% | viability, T/C (second compound 0.316 µM, first compound 0.001 µM) 61.6% | viability, T/C (second compound 0.316 µM, first compound 0.00316 µM) 64.7% | viability, T/C [3] 31.5% | viability, T/C (second compound 1 µM, first compound 0.0001 µM) 93.3% | viability, T/C (second compound 1 µM, first compound 0.000316 µM) 95.9% | viability, T/C (second compound 1 µM, first compound 0.001 µM) 60.6% | viability, T/C (second compound 1 µM, first compound 0.00316 µM) 47% | viability, T/C [5] 25.4% | viability, T/C (second compound 3.16 µM, first compound 0.0001 µM) 57.5% | viability, T/C (second compound 3.16 µM, first compound 0.000316 µM) 32.3% | viability, T/C (second compound 3.16 µM, first compound 0.001 µM) 16.7% | viability, T/C (second compound 3.16 µM, first compound 0.00316 µM) 14.7%

CC1COCCN1c1cc(-c2ccnn2C)c2ccnc(-c3ccn[nH]3)c2n1 (stereo not given) + COc1cc2nc(C)nc(NC(C)c3cc(N)cc(C(F)(F)F)c3)c2cc1OC1CCOC1
1470 nM: IC50 (second compound 0.1 µM)
< 10 nM: IC50 (second compound 10 µM)
inactive: viability, T/C [1] 81.3% | viability, T/C [2] 90.3% | viability, T/C (second compound 0.1 µM, first compound 0.1 µM) 75.8% | viability, T/C (second compound 0.1 µM, first compound 0.316 µM) 71.4% | viability, T/C (second compound 0.1 µM, first compound 1 µM) 54.5% | viability, T/C (second compound 0.1 µM, first compound 3.16 µM) 40.6% | viability, T/C [3] 80% | viability, T/C [4] 86.1% | viability, T/C (second compound 0.316 µM, first compound 0.1 µM) 74.2% | viability, T/C (second compound 0.316 µM, first compound 0.316 µM) 58.9% | viability, T/C (second compound 0.316 µM, first compound 1 µM) 42.6% | viability, T/C (second compound 0.316 µM, first compound 3.16 µM) 48.6% | viability, T/C [5] 94.5% | viability, T/C [6] 82% | viability, T/C (second compound 1 µM, first compound 0.1 µM) 76.9% | viability, T/C (second compound 1 µM, first compound 0.316 µM) 64.8% | viability, T/C (second compound 1 µM, first compound 1 µM) 53.6% | viability, T/C (second compound 1 µM, first compound 3.16 µM) 46.3% | viability, T/C [7] 80.6% | viability, T/C [8] 82.6% | viability, T/C (second compound 3.16 µM, first compound 0.1 µM) 70% | viability, T/C (second compound 3.16 µM, first compound 0.316 µM) 55.8% | viability, T/C (second compound 3.16 µM, first compound 1 µM) 37.5% | viability, T/C (second compound 3.16 µM, first compound 3.16 µM) 48.4% | viability, T/C (second compound 10 µM, first compound 0.01 µM) 37.4% | viability, T/C (second compound 10 µM, first compound 0.0316 µM) 46.5% | viability, T/C (second compound 10 µM, first compound 0.1 µM) 45.8% | viability, T/C (second compound 10 µM, first compound 0.316 µM) 34.1% | viability, T/C (second compound 10 µM, first compound 1 µM) 36.9% | viability, T/C (second compound 10 µM, first compound 3.16 µM) 24.8%
706 nM: IC50 (second compound 0.316 µM)
1860 nM: IC50 (second compound 1 µM)
474 nM: IC50 (second compound 3.16 µM)
